# Measured values: patent US7700584B2 (Hangzhou Minsheng Pharmaceuticals Co., Ltd., priority 2004, dated 2010)
# Where two headings read alike, the source gives them in different places.
# Tests used:
# [1] = tested on: Hela human cervical carcinoma; experiment: In vitro anti-tumor IC50 (MTT), Hela; assay type: cell-based; conditions: Table 4
# Description: (§1) (1) Single cell suspension was seeded into 96-well plates (the cells was diluted in the PRMI-1640 minimum medium to 3×10^4 cells/ml, […] diluted cells/well). […] The experiments were performed in quadruplicate.
# (§2) (2) The medium was removed. Solutions of the anti-tumor agents (50 compounds) were prepared in a freshly prepared medium at serial concentrations. […] of the solution was added into each well. Incubation was continued for 48 hours.
# (§3) (3) 20 ug of 2 mg/ml MTT was added into each well, and incubated for 4 hours.
# (§4) (4) The medium was removed from the well. The microplates were swiftly turned down to throw-off the medium. […] of DMSO was added into each well, and vortexed at room temperature for 10 minutes.
# (§5) (5) OD value (λ=570 nm) was measured with an Enzyme-Linked Detector.
# (§6) (6) The graph of cell vitality was plotted, and IC50 was calculated.
# [2] = tested on: MCF-7 human mammary adenocarcinoma; experiment: In vitro anti-tumor IC50 (MTT), MCF-7; assay type: cell-based; conditions: Table 4
# Description: as §1, §2, §3, §4, §5, §6
# [3] = tested on: A-549 human lung adenocarcinoma; experiment: In vitro anti-tumor IC50 (MTT), A-549; assay type: cell-based; conditions: Table 4
# Description: as §1, §2, §3, §4, §5, §6
# [4] = tested on: Bel-7402 human hepatic carcinoma; experiment: In vitro anti-tumor IC50 (MTT), Bel-7402; assay type: cell-based; conditions: Table 4
# Description: as §1, §2, §3, §4, §5, §6
# [5] = tested on: HL-60 human promyelocytic leukemia; experiment: In vitro anti-tumor IC50 (MTT), HL-60; assay type: cell-based; conditions: Table 4
# Description: as §1, §2, §3, §4, §5, §6
# [6] = tested on: mouse grafted sarcoma S-180; experiment: Activity against mouse grafted sarcoma S-180; assay type: in vivo, Kunming mice; conditions: for Inhibition rate (%) / Tumor weight: 30 mg/kg i.v., 6 doses; for Tumor weight: X ± SD, n = 10
# Description: (1) Experimental animals: Kunming mice weighting 18-22 g;
# (2) 100 mg/ml solutions of the 3 compounds were prepared, respectively, in water for injection (1% surface surfactant was added into the solution of Compound 6). 5-FU and camptothecine, 30 mg/kg and 1 mg/kg, respectively, were used as positive controls;
# 3. Route of Administration: Intravenous Injection.
# (§7) The experiments were performed according to “Guideline for New Drugs (Western medicines) in Pre-clinical Stages” issued by Bureau of Drug Policy & Administration of the People's Republic of China, and the relevant methods in “Methodology of Pharmaceutical Experiments”, Xu Shuyun et al. ed. 120 male Kunming mice weighting […] were allowed to grow 3 days. No abnormality was observed. The mice were routinely inoculated in oxter with mouse sarcoma S-180, and weighted 4 hrs. after inoculation. The mice were randomly divided into 12 groups, 10 mice/group. Group 1 was given 0.3 ml of physiological saline as negative control; Group 2 was given 5-FU as positive control, 0.6 mg/mouse; Group 3 was given hydroxycamptothecine as positive control, 0.02 mg/mouse. Groups 4, 5 and 6 were injected with 10% Compound 6, 0.4 ml/mouse, 0.2 ml/mouse, and 0.1 ml/mouse, respectively. Groups 7, 8 and 9 were injected with 10% Compound 8, 0.4 ml/mouse, 0.2 ml/mouse, and 0.1 ml/mouse, respectively. Groups 10, 11, and 12 were injected with 10% Compound 20, 0.4 ml/mouse, 0.2 ml/mouse, and 0.1 ml/mouse, respectively. The tested compounds were administered on the next day after inoculation, once a day on alternate days, 6 doses totally administered. On the next day after the end dose, the mice were weighed and sacrificed. After the tumor was excised, body weight and tumor weight were recorded. The tumor inhibition rate was calculated based on the following formula: [(average tumor weight of the control groups−average tumor weight of the experimental groups)/average tumor weight of the control groups]×100%. The data was processed statistically. The above experiments were repeated three times.
# [7] = tested on: mouse grafted liver cancer H22; experiment: Activity against mouse grafted liver cancer H22; assay type: in vivo, Kunming mice; conditions: for Tumor weight: X ± SD, n = 10
# Description: as §7
# The experiments were identical with the experiments for activity against mouse grafted sarcoma S-180, except that the cell line inoculated was liver cancer H22. The experiments were repeated three times.
# [8] = tested on: mouse grafted uterine cervix cancer U14; experiment: Activity against mouse grafted uterine cervix cancer U14; assay type: in vivo, Kunming mice; conditions: 30 mg/kg; for Tumor weight: X ± SD, n = 10
# Description: as §7
# (§8) The experiments were identical with the experiments for activity against mouse grafted sarcoma S-180, except the following:
# (1) the tumor cell line inoculated was mouse grafted uterine cervix cancer U14;
# (2) all the mice were female.
# mouse lung cancer Lewis = experiment: Activity against mouse grafted lung cancer Lewis; assay type: in vivo, Kunming mice; conditions: Lewis, 30 mg/kg; for Tumor weight: X ± SD, n = 10
# Description: as §7, §8
# (1) the tumor cell line inoculated was mouse lung cancer Lewis;
# (2) Compound 6, Compound 8 and Compound 21 were not tested for their activity;
# (3) the mice were divided into six groups.
# [9] = tested on: U-937 human histocytic lymphoma; experiment: In vitro inhibition rate to tumor cells (MTT), U-937; assay type: cell-based; conditions: Homo sapiens, U-937, 50 μg/ml, read-out: inhibition rate, Results (%) U-937
# [10] = tested on: A-549 human lung adenocarcinoma; experiment: In vitro inhibition rate to tumor cells (MTT), A-549; assay type: cell-based; conditions: Homo sapiens, A549, 50 μg/ml, read-out: inhibition rate, Results (%) A-549
# [11] = tested on: Bel-7402 human hepatic carcinoma; experiment: In vitro inhibition rate to tumor cells (MTT), Bel-7402; assay type: cell-based; conditions: Homo sapiens, Bel-7402, 50 μg/ml, read-out: inhibition rate, Results (%) Bel-7402
# [12] = tested on: MCF-7 human mammary adenocarcinoma; experiment: In vitro inhibition rate to tumor cells (MTT), MCF-7; assay type: cell-based; conditions: Homo sapiens, MCF7, 50 μg/ml, read-out: inhibition rate, Results (%) MCF-7
# [13] = tested on: SMMC-7721 human hepatic carcinoma; experiment: In vitro inhibition rate to tumor cells (MTT), SMMC-7721; assay type: cell-based; conditions: Homo sapiens, SMMC-7721, 50 μg/ml, read-out: inhibition rate, Results (%) SMMC-7721
# [14] = tested on: HL-60 human promyelocytic leukemia; experiment: In vitro inhibition rate to tumor cells (MTT), HL-60; assay type: cell-based; conditions: Homo sapiens, HL-60, 50 μg/ml, read-out: inhibition rate, Results (%) HL-60
# [15] = tested on: Hela human cervical carcinoma; experiment: In vitro inhibition rate to tumor cells (MTT), Hela; assay type: cell-based; conditions: Homo sapiens, HeLa, 50 μg/ml, read-out: inhibition rate, Results (%) Hela
# [16] = tested on: LLC mouse Lewis lung carcinoma; experiment: In vitro inhibition rate to tumor cells (MTT), LLC; assay type: cell-based; conditions: Mus musculus, Lewis lung carcinoma, 50 μg/ml
# [17] = Solubility in water (observation); assay type: physicochemical
# [18] = tested on: influenza A virus (Jifang 90-15); experiment: microbe, parasite or virus in culture; assay type: cell-based
# MDCK (dog kidney) cells = experiment: Toxicity TC50 of the samples in MDCK cells (influenza screening); conditions: concentration of 50% toxicity
# [19] = tested on: influenza B virus (Jifang 97-13); experiment: Screening for the activity against influenza B virus (CPE in MDCK cells)
# [20] = H22, first experiment, 30 mg/kg i.v., 6 doses
# [21] = H22, second experiment, 30 mg/kg
# [22] = H22, third experiment, 30 mg/kg
smiles,measurement,setting,value
"O=c1[nH]cc(F)c(=O)[nH]1 [Compound 5-FU, reference compound]","IC50 (ug/ml) against tumor cell lines, Hela",[1],2.86 µg/mL
same,"IC50 (ug/ml) against tumor cell lines, MCF",[2],1.53 µg/mL
same,"IC50 (ug/ml) against tumor cell lines, A-549",[3],0.7 µg/mL
same,"IC50 (ug/ml) against tumor cell lines, Bel-7402",[4],0.54 µg/mL
same,"IC50 (ug/ml) against tumor cell lines, HL-60",[5],0.51 µg/mL
same,Inhibition rate (%),"[6]; S-180, first experiment",71.2%
same,Tumor weight,"[6]; S-180, first experiment",0.72 ± 0.23 g
same,Inhibition rate (%),"[6]; S-180, second experiment",69.6%
same,Tumor weight,"[6]; S-180, second experiment",0.79 ± 0.33 g
same,Average weight (g)-after administration,"[6]; mouse, in vivo, iv, 30 mg/kg",22.9 g
same,Average weight(g)-after administration,"[6]; mouse, in vivo, iv, 30 mg/kg",21.9 g
same,Inhibition rate (%),[7]; [20],60.0%
same,Tumor weight,[7]; [20],1.21 ± 0.31 g
same,Inhibition rate (%),[7]; [21],60.5%
same,Tumor weight,[7]; [21],1.19 ± 0.31 g
same,Inhibition rate (%),[7]; [22],64.2%
same,Tumor weight,[7]; [22],1.08 ± 0.31 g
same,Average weight (g)-after administration,"[7]; mouse, in vivo, 30 mg/kg",20.3 g
same,Average weight(g)-after administration,"[7]; mouse, in vivo, 30 mg/kg",21.3 g
same,Average weight(g)-after administration,"[7]; mouse, in vivo, iv, 30 mg/kg",22.3 g
same,Inhibition rate (%),"[8]; U14, first experiment",40.2%
same,Tumor weight,"[8]; U14, first experiment",2.10 ± 0.31 g
same,Inhibition rate (%),"[8]; U14, second experiment",42.6%
same,Tumor weight,"[8]; U14, second experiment",1.95 ± 0.31 g
same,Inhibition rate (%),"[8]; U14, third experiment",42.0%
same,Tumor weight,"[8]; U14, third experiment",2.10 ± 0.31 g
same,Average weight (g)-after administration,"[8]; mouse, in vivo",21.0 g
same,Average weight(g)-after administration,"[8]; mouse, in vivo",21.3 g
same,Inhibition rate (%),mouse lung cancer Lewis; first experiment,55.0%
same,Tumor weight,mouse lung cancer Lewis; first experiment,1.34 ± 0.31 g
same,Inhibition rate (%),mouse lung cancer Lewis; second experiment,54.3%
same,Tumor weight,mouse lung cancer Lewis; second experiment,1.10 ± 0.31 g
same,Inhibition rate (%),mouse lung cancer Lewis; third experiment,53.7%
same,Tumor weight,mouse lung cancer Lewis; third experiment,1.25 ± 0.31 g
"CC(C)C1CC23OC1(O)CC(O)(CO)C2CCC3C (centres unmarked) [Compound 32, Curcumol dihydroxy compound]",inhibition at 50 µg/mL,[9]; Table 1,65.3%
same,inhibition at 50 µg/mL,[9]; Table 2 (repeated screening),67.2%
same,inhibition at 50 µg/mL,[10]; Table 1,-12.5%
same,inhibition at 50 µg/mL,[10]; Table 2 (repeated screening),-12.5%
same,inhibition at 50 µg/mL,[11]; Table 1,4.23%
same,inhibition at 50 µg/mL,[11]; Table 2 (repeated screening),4.23%
same,inhibition at 50 µg/mL,[12]; Table 1,65.1%
same,inhibition at 50 µg/mL,[12]; Table 2 (repeated screening),65%
same,inhibition at 50 µg/mL,[13]; Table 1,80%
same,inhibition at 50 µg/mL,[13]; Table 2 (repeated screening),82.6%
same,inhibition at 50 µg/mL,[14]; Table 1,14%
same,inhibition at 50 µg/mL,[14]; Table 2 (repeated screening),13.4%
same,inhibition at 50 µg/mL,[15]; Table 1,84.3%
same,inhibition at 50 µg/mL,[15]; Table 2 (repeated screening),80.1%
same,inhibition at 50 µg/mL,[16]; Table 1,7.27%
same,inhibition at 50 µg/mL,[16]; Table 2 (repeated screening),7.05%
same,solubility in water (in words),[17],very big
NC(=O)c1ncn([C@@H]2O[C@H](CO)[C@@H](O)[C@H]2O)n1 [RBV],"IC50, influenza A virus",[18]; CPE in MDCK cells,2.06 µg/mL
same,"SI, influenza A virus",[18]; SI = TC50/IC50,970.87
same,TC50,MDCK (dog kidney) cells,>2000 µg/mL
same,"IC50, influenza B virus",[19]; CPE in MDCK cells,6.17 µg/mL
same,"SI, influenza B virus",[19]; SI = TC50/IC50,324.15
